Experimental data as given in article PMC5648786, “Characterization of a dual function macrocyclase enables design and use of efficient macrocyclization substrates” (Nature Communications, 2017).
Positions count from the first letter of the chain named. No end group written: not given here.

T1: GmPOPB-S577A (inactive mutant) (Galerina marginata, UniProt H2E7Q8, S577A)
T1 construct: His-tag (TEV-cleavable) (cleaved yes); made in house; host or cells: E. coli BL21(DE3)
T1 sequence (H2E7Q8 1-730 S577A): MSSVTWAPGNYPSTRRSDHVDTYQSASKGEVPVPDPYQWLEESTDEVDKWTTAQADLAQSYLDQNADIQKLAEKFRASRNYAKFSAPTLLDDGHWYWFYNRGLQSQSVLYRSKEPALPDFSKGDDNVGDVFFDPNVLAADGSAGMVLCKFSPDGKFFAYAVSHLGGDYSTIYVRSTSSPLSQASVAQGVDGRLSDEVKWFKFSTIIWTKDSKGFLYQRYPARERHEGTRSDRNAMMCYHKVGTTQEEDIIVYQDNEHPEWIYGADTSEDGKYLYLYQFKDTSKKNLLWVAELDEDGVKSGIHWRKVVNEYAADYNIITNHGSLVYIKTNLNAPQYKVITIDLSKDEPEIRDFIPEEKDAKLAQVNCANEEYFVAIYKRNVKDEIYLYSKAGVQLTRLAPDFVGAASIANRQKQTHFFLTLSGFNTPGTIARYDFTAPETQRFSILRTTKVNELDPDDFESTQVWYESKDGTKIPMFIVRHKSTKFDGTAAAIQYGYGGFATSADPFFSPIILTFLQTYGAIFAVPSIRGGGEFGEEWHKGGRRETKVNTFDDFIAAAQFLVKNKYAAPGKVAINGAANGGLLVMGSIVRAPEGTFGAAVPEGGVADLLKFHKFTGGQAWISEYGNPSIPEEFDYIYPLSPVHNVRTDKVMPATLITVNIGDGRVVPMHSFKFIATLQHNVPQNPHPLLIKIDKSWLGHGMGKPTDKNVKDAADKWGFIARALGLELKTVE

T2: GmPOPB-D661A (Galerina marginata, UniProt H2E7Q8 1-730, D661A)
T2 sequence: T1 sequence (H2E7Q8 1-730 S577A) with A577S, D661A

T3: GmPOPB-S577A (Galerina marginata, UniProt H2E7Q8, S577A)
T3 sequence: T1 sequence (H2E7Q8 1-730 S577A)


Legend:
GmPOPB [1] = target: T4, GmPOPB (Galerina marginata, UniProt H2E7Q8); conditions: macrocyclization; 50 mM Tris pH 8.0, 50 mM NaCl, 10 mM DTT, room temperature; GmPOPB 1 μM for 13mer and 14mer, 50 nM for C6S, 20 nM others; duplicates, fit ± SEM
Description: Comparison between distinct substrates was performed in 50 mM Tris pH 8.0, 50 mM NaCl, 10 mM DTT with varying concentrations of substrates at room temperature. All reactions were performed in duplicates. Reactions were started by adding GmPOPB (50 nM for GmAMA1_C6S, 1 μM for the 13mer and 14mer, and 20 nM for other substrates) to the assay mixture containing buffer and peptide. Reactions were quenched at several time points by adding 50 μL reaction mixture to 20 μL 6% TFA. Reactants were separated from products for quantification by injecting 50 μL of each quenched time point mix onto a ZORBAX SB-C18, 5 µm, 9.4 × 50 mm (Agilent) column connected to an Agilent LC-MS (G6130B Single Quad, Agilent Technologies). Reactants were separated from products using a gradient from H2O containing 0.1% TFA or 0.1% formic acid and 5% acetonitrile to 50% acetonitrile, at 1.5 ml/min for 8 min. […] The sum of product+substrate was assumed equal to the total initial amount of substrate, product converted from % to concentration. This value was divided by concentration of enzyme present to yield v/E t (min^−1). […] For progress curves with the 35mer substrate, measurements were triplicate and quantification relied on ion counts from mass spectrometry. […] Authentic cyclic peptide was quantified by UV absorbance. […] Kinetic data were fitted to a Michaelis–Menten equation using GraphPad Prism, and values reported are average and standard error of the mean.

GmPOPB [2] = target: T4, GmPOPB; test: Peptide products formed after 1 h and 16 h reaction of truncated substrates with GmPOPB; type: biochemical; set-up: His-tag (TEV-cleavable) (cleaved yes); made in house; host or cells: E. coli BL21(DE3); conditions: 1 μM GmPOPB, 200 μM peptide substrate, performed twice
Description: The peptides are colored as Fig. 1c with N-terminus at top. Error bars are standard error of the mean from the average of at least two independent measurements (Supplementary Table 3). c Michaelis–Menten curves show both the 13mer and 14mer are substrates for the enzyme. Fitted values for K d, K m, and k cat are shown in Supplementary Tables 2 and 3. Error bars are standard error of the mean from duplicate measurements. d Cyclic peptide produced after 1 h reaction with 1 μM GmPOPB and 200 μM of various peptide substrates. e Peptide produced after 16 h of reaction with 1 μM GmPOPB and 200 μM of various peptide substrates. Peptide sequences are colored as Fig. 1b and detailed in Supplementary Fig. 1
Comparison between distinct substrates was performed in 50 mM Tris pH 8.0, 50 mM NaCl, 10 mM DTT with varying concentrations of substrates at room temperature. All reactions were performed in duplicates. […] Reactants were separated from products for quantification by injecting 50 μL of each quenched time point mix onto a ZORBAX SB-C18, 5 µm, 9.4 × 50 mm (Agilent) column connected to an Agilent LC-MS (G6130B Single Quad, Agilent Technologies). […] For progress curves with the 35mer substrate, measurements were triplicate and quantification relied on ion counts from mass spectrometry. […] Authentic cyclic peptide was quantified by UV absorbance. […]

[3] = target: T1, GmPOPB-S577A (inactive mutant); test: Isothermal titration calorimetry, peptide binding to inactive mutant GmPOPB_S577A; conditions: ITC, 20 °C
GmPOPB-D661A = target: T2, GmPOPB-D661A; test: crystal structure; conditions: both partners purified
GmPOPB-S577A = target: T3, GmPOPB-S577A; test: crystal structure; conditions: both partners purified

Molecule | kcat (GmPOPB [1]) | Linear product (hydrolysis instead of macrocyclization) after 16 h of reaction (GmPOPB [2]) | -TΔS ([3]; GmPOPB_S577A, average ± SEM) | ΔG ([3]; GmPOPB_S577A, average ± SEM) | ΔH ([3]; GmPOPB_S577A, average ± SEM) | Kd ([3]; peptide titrated into GmPOPB_S577A, 50 mM Tris pH 8.0, 50 mM NaCl, 10 mM DTT, single-site model, n fixed at 1.0, average ± SEM of at least 2 measurements) | binding result (GmPOPB-D661A) | binding result (GmPOPB-S577A)
IWGIGCNPWTAEHV [14mer] | 0.58 ± 0.10 min⁻¹ | less linear product | -5.8 ± 0.2 kcal/mol | -6.7 ± 0.1 kcal/mol | -0.9 ± 0.2 kcal/mol | 9.5 ± 1.1 µM | – | –
IWGIGCNPWTAEHVDQTLASGNDIC (also called 25mer peptide) [25mer substrate (core, linker and recognition tail)] | – | – | – | – | – | – | binds | binds
